# According to patent US12351580B2, “NLRP3 modulators” (Innate Tumor Immunity, Inc., priority 2017, dated 2025):
# Target: T1, TLR8 (Homo sapiens, UniProt Q9NR97)
# T1 construct: host or cells: HEK-Blue cells (human HEK) co-expressing TLR8 and an NF-kB/AP1-inducible SEAP reporter
# T1 sequence (Q9NR97 27-1041): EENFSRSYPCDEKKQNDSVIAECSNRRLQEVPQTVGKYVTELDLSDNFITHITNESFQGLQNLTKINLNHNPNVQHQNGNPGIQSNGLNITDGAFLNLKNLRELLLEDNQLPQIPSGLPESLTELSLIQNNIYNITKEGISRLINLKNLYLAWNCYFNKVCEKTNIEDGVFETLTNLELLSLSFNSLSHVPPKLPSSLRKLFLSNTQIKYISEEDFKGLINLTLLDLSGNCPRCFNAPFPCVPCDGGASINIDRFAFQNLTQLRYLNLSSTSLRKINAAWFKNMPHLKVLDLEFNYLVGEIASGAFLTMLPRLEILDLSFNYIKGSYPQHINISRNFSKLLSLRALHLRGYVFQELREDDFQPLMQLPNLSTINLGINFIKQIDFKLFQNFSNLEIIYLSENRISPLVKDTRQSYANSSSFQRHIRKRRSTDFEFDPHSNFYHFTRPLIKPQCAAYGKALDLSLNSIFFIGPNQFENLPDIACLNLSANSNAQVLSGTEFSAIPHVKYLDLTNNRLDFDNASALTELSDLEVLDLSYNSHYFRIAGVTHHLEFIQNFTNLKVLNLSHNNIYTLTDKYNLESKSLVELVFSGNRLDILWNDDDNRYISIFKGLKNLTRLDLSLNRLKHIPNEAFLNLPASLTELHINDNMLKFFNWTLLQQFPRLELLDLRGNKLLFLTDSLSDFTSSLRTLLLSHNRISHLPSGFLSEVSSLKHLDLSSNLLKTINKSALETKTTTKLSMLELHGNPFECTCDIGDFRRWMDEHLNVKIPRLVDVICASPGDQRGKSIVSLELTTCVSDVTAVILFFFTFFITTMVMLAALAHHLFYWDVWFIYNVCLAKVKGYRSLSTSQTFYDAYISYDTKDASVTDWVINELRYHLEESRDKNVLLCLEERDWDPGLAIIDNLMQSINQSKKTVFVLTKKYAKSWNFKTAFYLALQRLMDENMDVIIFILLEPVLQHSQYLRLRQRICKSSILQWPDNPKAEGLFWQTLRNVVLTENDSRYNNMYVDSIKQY
# Assay: In vitro human TLR8 binding reporter assay (HEK-Blue, NF-kB/AP1-inducible SEAP)
# Type: cell-based
# Settings: activity range symbols
# In short: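 Reporter cells are plated at 15,000 per well and rested 24 h. Next day, test compounds or DMSO are dispensed, followed by 18 h incubation at 37 °C, 5% CO2.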
row,EC50 [µM],SMILES
1,> 100,"Nc1nc2cc(-c3cccs3)ccc2c2c1nc(CN1CCCC1=O)n2CCO [Compound 469, 1-{[4-amino-1-(2-hydroxyethyl)-7-(thiophen-2-yl)-1H-imidazo[4,5-c]quinolin-2-yl]methyl}pyrrolidin-2-one]"
2,> 100,"CCC(=O)N(CC)Cc1nc2c(N)nc3cc(-c4cccs4)ccc3c2n1CCO [Compound 470, N-{[4-amino-1-(2-hydroxyethyl)-7-(thiophen-2-yl)-1H-imidazo[4,5-c]quinolin-2-yl]methyl}-N-ethylpropanamide]"
3,> 100,"CCNCc1nc2c(N)nc3cc(-c4cccs4)ccc3c2n1CCO [Compound 471, 2-{4-amino-2-[(ethylamino)methyl]-7-(thiophen-2-yl)-1H-imidazo[4,5-c]quinolin-1-yl}ethan-1-ol]"
4,> 100,"CCN(Cc1nc2c(N)nc3cc(-c4cccs4)ccc3c2n1CC)C(C)=O [Compound 472, N-{[4-amino-1-ethyl-7-(thiophen-2-yl)-1H-imidazo[4,5-c]quinolin-2-yl]methyl}-N-ethylacetamide]"
5,> 100,"CCC(=O)N(CC)Cc1nc2c(N)nc3cc(-c4ccn[nH]4)ccc3c2n1CC [Compound 473, N-{[4-amino-1-ethyl-7-(1H-pyrazol-5-yl)-1H-imidazo[4,5-c]quinolin-2-yl]methyl}-N-ethylpropanamide]"
6,> 100,"CCN(Cc1nc2c(N)nc3cc(-c4ccn[nH]4)ccc3c2n1CC)C(C)=O [Compound 474, N-{[4-amino-1-ethyl-7-(1H-pyrazol-5-yl)-1H-imidazo[4,5-c]quinolin-2-yl]methyl}-N-ethylacetamide]"
7,> 100,"CCC(=O)N(CC)Cc1nc2c(N)nc3cc(-c4ccn[nH]4)ccc3c2n1CCO [Compound 475, N-{[4-amino-1-(2-hydroxyethyl)-7-(1H-pyrazol-5-yl)-1H-imidazo[4,5-c]quinolin-2-yl]methyl}-N-ethylpropanamide]"
8,> 100,"CCN(Cc1nc2c(N)nc3cc(-n4cccn4)ccc3c2n1CCO)C(C)=O [Compound 476, N-{[4-amino-1-(2-hydroxyethyl)-7-(1H-pyrazol-1-yl)-1H-imidazo[4,5-c]quinolin-2-yl]methyl}-N-ethylacetamide]"
9,> 100,"CCNCc1nc2c(N)nc3cc(-n4cccn4)ccc3c2n1CCO [Compound 477, 2-[4-amino-2-[(ethylamino)methyl]-7-(1H-pyrazol-1-yl)-1H-imidazo[4,5-c]quinolin-l-yl]ethan-1-ol]"
10,> 100,"CCC(=O)N(CC)Cc1nc2c(N)nc3cc(-n4cccn4)ccc3c2n1CCO [Compound 478, N-{[4-amino-1-(2-hydroxyethyl)-7-(1H-pyrazol-1-yl)-1H-imidazo[4,5-c]quinolin-2-yl]methyl}-N-ethylpropanamide]"
11,> 100,"CCN(Cc1nc2c(N)nc3cc(-n4cccn4)ccc3c2n1CC)C(C)=O [Compound 479, N-{[4-amino-1-ethyl-7-(1H-pyrazol-1-yl)-1H-imidazo[4,5-c]quinolin-2-yl]methyl}-N-ethylacetamide]"
12,> 100,"CCC(=O)N(CC)Cc1nc2c(N)nc3cc(-c4cccs4)ccc3c2n1CC [Compound 480, N-{[4-amino-1-ethyl-7-(thiophen-2-yl)-1H-imidazo[4,5-c]quinolin-2-yl]methyl}-N-ethylpropanamide]"
13,> 100,"CCC(=O)N(CC)Cc1nc2c(N)nc3cc(-n4cccn4)ccc3c2n1CC [Compound 481, N-{[4-amino-1-ethyl-7-(1H-pyrazol-1-yl)-1H-imidazo[4,5-c]quinolin-2-yl]methyl}-N-ethylpropanamide]"
14,> 100,"CCN(Cc1nc2c(N)nc3cc(-c4cccs4)ccc3c2n1CCO)C(C)=O [Compound 482, N-{[4-amino-1-(2-hydroxyethyl)-7-(thiophen-2-yl)-1H-imidazo[4,5-c]quinolin-2-yl]methyl}-N-ethylacetamide]"

# Second part, the compound before the results:
row,SMILES,EC50 [µM]
1,"CCN(Cc1nc2c(N)nc3cc(-c4cc[nH]n4)ccc3c2[nH]1)C(=O)N1CCOCC1 [Compound 455, N-{[4-amino-7-(1H-pyrazol-3-yl)-1H-imidazo[4,5-c]quinolin-2-yl]methyl}-N-ethylmorpholine-4-carboxamide]",> 100
2,"CCN(Cc1nc2c(N)nc3cc(-c4cc[nH]n4)ccc3c2[nH]1)C(=O)NC(C)(C)C [Compound 456, 1-{[4-amino-7-(1H-pyrazol-3-yl)-1H-imidazo[4,5-c]quinolin-2-yl]methyl}-3-tert-butyl-1-ethylurea]",> 100
3,"CCNC(=O)N(CC)Cc1nc2c(N)nc3cc(-c4cc[nH]n4)ccc3c2[nH]1 [Compound 457, 1-{[4-amino-7-(1H-pyrazol-3-yl)-1H-imidazo[4,5-c]quinolin-2-yl]methyl}-1,3-diethylurea]",> 100
4,"CCN(Cc1nc2c(N)nc3cc(-c4cc[nH]n4)ccc3c2[nH]1)S(=O)(=O)N(C)C [Compound 458, 2-{[(dimethylsulfamoyl)(ethyl)amino]methyl}-7-(1H-pyrazol-3-yl)-1H-imidazo[4,5-c]quinolin-4-amine]",> 100
5,"CCN(Cc1nc2c(N)nc3cc(-c4cc[nH]n4)ccc3c2[nH]1)S(=O)(=O)C(C)C [Compound 459, N-{[4-amino-7-(1H-pyrazol-3-yl)-1H-imidazo[4,5-c]quinolin-2-yl]methyl}-N-ethylpropane-2-sulfonamide]",> 100
6,"CCNCc1nc2c(N)nc3cc(-c4ccn[nH]4)ccc3c2n1CCO [Compound 462, 2-[4-Amino-2-[(ethylamino)methyl]-7-(1H-pyrazol-5-yl)-1H-imidazo[4,5-c]quinolin-1-yl]ethan-1-ol]",> 100
7,"CCn1c(CN2CCCC2=O)nc2c(N)nc3cc(-c4cccs4)ccc3c21 [Compound 463, 1-{[4-amino-1-ethyl-7-(thiophen-2-yl)-1H-imidazo[4,5-c]quinolin-2-yl]methyl}pyrrolidin-2-one]",> 100
8,"CCNCc1nc2c(N)nc3cc(-c4ccn[nH]4)ccc3c2n1CC [Compound 464, 1-ethyl-2-[(ethylamino)methyl]-7-(1H-pyrazol-5-yl)-1H-imidazo[4,5-c]quinolin-4-amine]",> 100
9,"CCn1c(CN2CCCC2=O)nc2c(N)nc3cc(-n4cccn4)ccc3c21 [Compound 465, 1-{[4-amino-1-ethyl-7-(1H-pyrazol-1-yl)-1H-imidazo[4,5-c]quinolin-2-yl]methyl}pyrrolidin-2-one]",> 100
10,"CCn1c(CN2CCCC2=O)nc2c(N)nc3cc(-c4ccn[nH]4)ccc3c21 [Compound 466, 1-{[4-amino-1-ethyl-7-(1H-pyrazol-5-yl)-1H-imidazo[4,5-c]quinolin-2-yl]methyl}pyrrolidin-2-one]",> 100
11,"CCNCc1nc2c(N)nc3cc(-n4cccn4)ccc3c2n1CC [Compound 467, 1-ethyl-2-((ethylamino)methyl)-7-(1H-pyrazol-1-yl)-1H-imidazo[4,5-c]quinolin-4-amine]",> 100
12,"CCNCc1nc2c(N)nc3cc(-c4cccs4)ccc3c2n1CC [Compound 468, 1-ethyl-2-[(ethylamino)methyl]-7-(thiophen-2-yl)-1H-imidazo[4,5-c]quinolin-4-amine]",> 100

# Same assay, conditions: numeric bounds
row,EC50 [µM],SMILES
1,> 62,"CCCS(=O)(=O)N(CC)Cc1nc2c(N)nc3cc(-c4cc[nH]n4)ccc3c2[nH]1 [Compound 460, N-{[4-amino-7-(1H-pyrazol-3-yl)-1H-imidazo[4,5-c]quinolin-2-yl]methyl}-N-ethylpropane-1-sulfonamide]"
